Data: US6800659B2, “Compounds for modulating cell proliferation” (HSC Research and Development Limited Partnership, priority 2000, dated 2004)

Experiments:
normal bone marrow cells [1] = test: In vitro purging of normal bone marrow, then colony assay; format: cell-based
Method: Heparinized bone marrow cells were layered over Percoll (1.077 gm/ml) (Pharmacia Fine Chemical, Piscataway N.J.) and centrifuged at 400 g at 4° C. for 10 minutes to remove neutrophils and RBCs.
For the purging process, the cells were resuspended at 1×10^6/ml in complete medium with or without 50 μM CR4. The cells were incubated with the CR4 for two and a half hours at 37° C., 5% CO2. At the end of this period the cells were thoroughly washed in medium to remove CR4 and then cultured at 2×10^5 cells/ml in IMDM (OCl, Toronto) containing 0.9% (vol/vol) methylcellulose supplemented with 30% FCS (Cansera Rexdale, ON.) or normal human plasma, a cocktail of cytokines containing G-CSF (10 ng/ml, Amgen), IL-3 (40 U/ml, Immunex), MGF (50 ng/ml, Immunex), Etryhropoietin (2 u/ml, Epprex) or TPO (10 ng/ml, Amgen) and 5×10^−5M b-2-mercaptoethanol. The culture mixture was plated in 1 ml volumes into 35 mm petri dishes and incubated at 37° C., 5% CO2 in a humidified atmosphere. All cultures were evaluated at 14 days for the number of BFU-E colonies (defined as aggregates of more than 500 hemaglobinized cells or, 3 or more erythroid subcolonies), CFU-C colonies (defined as granulocyte or monocyte-macrophage cells or both) and CFU-GEMM colonies (a mixed population comprising of all elements).
For the purging process, the cells were resuspended at 1×10^6/ml in complete medium with or without 50 μM CR11. The cells were incubated with the tryrphostin for seven hours at 37° C., 5% CO2. At the end of this period the cells were thoroughly washed in medium to remove CR11 and then cultured at 2×10^5 cells/ml in IMDM (OCl, Toronto) containing 0.9% (vol/vol) methylcellulose supplemented with 30% FCS (Cansera Rexdate, ON.) or normal human plasma, a cocktail of cytokines containing G-CSF (10 ng/ml, Amgen), IL-3 (40 U/ml, Immunex), MGF (50 ng/ml, Immunex), Erythropoietin (2 u/ml, Epprex) or TPO (10 ng/ml, Amgen) and 5×10^−5M β-2-mercaptoethanol. The culture mixture was plated in 1 ml volumes into 35 mm petri dishes and incubated at 37° C., 5% CO2 in a humidified atmosphere. All cultures were evaluated at 14 days for the number of BFU-E colonies (defined as aggregates of more than 500 hemoglobinized cells or, 3 or more erythroid subcolonies), CFU-C colonies (defined as granulocyte or monocyte-macrophage cells or both) and CFU-GEMM colonies (a mixed population comprising of all elements).

Ph+ ALL cells = test: In vitro purging of Philadelphia positive ALL with CR11; format: cell-based, human; details: 50 μM, 7 hours exposure (FIG. 22)
Method: For the purging assay, the cells were resuspended in complete medium with or without CR11 as indicated and incubated at 37° C., 5% CO2 for 0-7 hours. Cells were then washed thoroughly with medium to remove the CR11, resuspended and plated in 1 ml volumes, in the absence of exogenous growth factors, into 35 mm petri dishes (Nunc, Gibco) containing alpha MEM (Gibco) plus 20% FCS (Cansera Rexdale, ON.) in 0.9% (vol/vol) methylcellulose (Fluka, Switzerland). Cultures were set at 37° C., 5% CO2 in a humidified atmosphere. Colonies consisting of more than 20 cells were counted at 9 days or earlier using an inverted microscope.

[2] = system: acute lymphoblastic leukemia, Philadelphia positive ALL, acute myeloid leukemia, myeloma and B-lineage lymphoma; test: Growth of cancer cells in culture, summary over cell types; format: cell-based; details: for effectiveness against a variety of cell types (Acute Lymphoblastic Leukemia, Philadelphia positive Leukemia, Acute Myeloid Leukemia): in culture
[3] = system: Philadelphia positive ALL, AML and lymphoma; test: High dose in vitro (ex vivo) purging assays, summary; format: cell-based
Description: […] Cancer cell death was effected by the induction of apoptosis. Accordingly, in another aspect of the invention, there is provided a method for killing cancer cells by ex vivo treatment of bone marrow from a patient with cancer with a compound of the invention, preferably CR4 and CR11 and then re-introducing the treated (or purged) bone marrow into the patient.

normal bone marrow cells [4] = test: CFU-GEMM assay: normal bone marrow differentiation in culture; format: cell-based; details: for inhibition of BFU-E colony formation: 20 μM
Method: (§1) The CFU-GEMM assay was performed according to Fauser and Messner (1978, Blood, 52(6) 143-8) and Messner and Fausser (1980, Blut, 41(5) 327-33) with some variations. In brief, heparinized bone marrow cells were layered over Percoll (1.077 gm/ml) (Pharmacia Fine Chemical, Piscataway N.J.) and centrifuged at 400 g at 4° C. for 10 minutes to remove neutrophils and RBCs. The fractionated BM cells at 2×10^5 cells/ml were cultured in IMDM (OCl, Toronto) containing 0.9% (vol/vol) methylcellulose supplemented with 30% FCS (Cansera Rexdale, ON.) or normal human plasma, a cocktail of cytokines containing G-CSF (10 ng/ml, Amgen), IL-3 (40 U/ml, Immunex), MGF (50 ng/ml, Immunex), Erythropoietin (2 u/ml, Epprex) or TPO (10 ng/ml, Amgen), 5×10^−5M β-2-mercaptoethanol and the specified concentration of CR4. The culture mixture was plated in 1 ml volumes into 35 mm petri dishes and incubated at 37° C., 5% CO2 in a humidified atmosphere. All cultures were evaluated at 14 days for the number of BFU-E colonies (defined as aggregates of more than 500 hemoglobinized cells or, 3 or more erythroid subcolonies), OFU-GM colonies (defined as granulocyte or monocyte-macrophage cells or both), CFU-Meg colonies (comprising 4 or more megakaryocytes) and CFU-GEMM colonies (a mixed population comprising of all elements).
as §1, with “1243-8)” for “143-8)”, “concentrations” for “concentration”, “CR19.” for “CR4.”, “hemaglobinized” for “hemoglobinized”, “subcolonies) and CFU-C” for “subcolonies), OFU-GM”, “both).” for “both), CFU-Meg colonies (comprising 4 or more megakaryocytes) and CFU-GEMM colonies (a mixed population comprising of all elements).”
as §1, with “1243-8)” for “143-8)”, “variations (British Journal of Haematology, 1992, 80, p40-48).” for “variations.”, “test compound.” for “CR4.”, “CO2,” for “CO2”, “subcolonies) and CFU-C” for “subcolonies), OFU-GM”, “both).” for “both), CFU-Meg colonies (comprising 4 or more megakaryocytes) and CFU-GEMM colonies (a mixed population comprising of all elements).”

[5] = system: Philadelphia positive acute lymphoblastic leukemia (Ph+ ALL) cells; test: Colony growth of Philadelphia positive ALL cells in methylcellulose culture; format: cell-based, human
Method: (§2) Ph+ ALL cells were plated in 1 ml volumes, in the absence of exogenous growth factors, into 35 mm petri dishes (Nunc, Gibco) containing alpha MEM (Gibco) plus 10% FCS (Cansera Rexdale, ON.) in 0.9% (vol/vol) methylcellulose (Fluka, Switzerland) with the indicated concentrations of CR4. Cultures were set at 37° C., 5% CO2 in a humidified atmosphere. Colonies consisting of more than 20 cells were counted at 12 days or earlier using an inverted microscope.
as §2, with “ALL” for “Ph+ ALL”, “20%” for “10%”, “and” for “with”, “compound” for “CR4.”, “atmosphere” for “atmosphere.”
as §2, with “ALL” for “Ph+ ALL”, “20%” for “10%”, “ON)” for “ON.)”, “0.90%” for “0.9%”, “and” for “with”, “compound.” for “CR4.”
as §2, with “ALL” for “Ph+ ALL”, “20%” for “10%”, “and” for “with”, “CR24.” for “CR4.”, “9” for “12”
as §2, with “ALL” for “Ph+ ALL”, “20%” for “10%”, “and” for “with”, “CR19.” for “CR4.”, “9” for “12”

[6] = low nanomolar doses, long term exposure

COc1cc(/C=C/C=C(\C#N)C(=O)NCc2ccc(O)c(O)c2)cc(OC)c1O [CR11, (EE)-2-(3,4-Dihydroxybenzylaminocarbonyl)-3-(3,5-dimethoxy-4-hydroxystyryl)acrylonitrile]
BFU-E, CFU-GEMM and CFU-C colonies (normal bone marrow cells [1]; seven hours exposure to 50 μM (FIG. 21)): all normal
inhibition of colony formation (normal bone marrow cells [1]; seven hours exposure to 50 μM, colonies at 14 days (FIG. 21)): did not result in any significant inhibition
killing of Ph+ ALL cells (Ph+ ALL cells): complete killing
effectiveness against a variety of cell types (Acute Lymphoblastic Leukemia, Philadelphia positive Leukemia, Acute Myeloid Leukemia) [2]: highly effective
effectiveness as ex vivo purging agents [3]: effective

N#C/C(=C\C=C\c1ccc(O)c(O)c1)C(N)=O [CR17, (E,E)-2-Aminocarbonyl-3-(3,4-dihydroxystyryl)acrylonitrile]
inhibition of BFU-E colony formation (normal bone marrow cells [4]; 14 days (FIG. 13)): caused inhibition
inhibition of cell growth ([5]; 1-2.5 μM, Example 42, FIG. 8): significant inhibition
inhibition of cell growth ([5]; 1-2.5 μM, Example 43, FIG. 9): significant inhibition

N#C/C(=C\C=C\c1ccccc1)C(=O)NCc1ccc(O)c(O)c1 [CR19, (E,E)-2-(3,4-Dihydroxybenzylaminocarbonyl)-3-styrylacrylonitrile]
CFU-C colony formation (normal bone marrow cells [4]; 2.5 μM, 14 days (FIG. 12)): boosted
inhibition of the development of BFU-E colonies (normal bone marrow cells [4]; 2.5 μM, 14 days (FIG. 12)): significant inhibition
BFU-E colonies (normal bone marrow cells [4]; 5 μM, 14 days (FIG. 12)): virtually absent
CFU-C colony formation (stimulatory effect) (normal bone marrow cells [4]; 5 μM, 14 days (FIG. 12)): stimulatory effect disappeared
normal cell growth and differentiation (normal bone marrow cells [4]; [6]): unaffected
effectiveness against Ph+ ALL cells ([5]; nanomolar concentrations, colonies at 9 days (FIG. 11)): highly effective
effectiveness against a variety of cell types (Acute Lymphoblastic Leukemia, Philadelphia positive Leukemia, Acute Myeloid Leukemia) [2]: highly effective
toxicity to cancer cells [2, 6]: highly toxic

N#C/C(=C\C=C\c1ccc(O)c(O)c1)C(=O)NCc1ccc(O)c(O)c1 [CR21, (E,E)-2(3,4-Dihydroxybenzylaminocarbonyl)-3-(3,4-dihydroxystyryl)acrylonitrile]
inhibition of BFU-E colony formation (normal bone marrow cells [4]; 14 days (FIG. 13)): caused inhibition
inhibition of cell growth ([5]; 5 μM, Example 42, FIG. 8): inhibited cell growth
inhibition of cell growth ([5]; 1-2.5 μM, Example 43, FIG. 9): significant inhibition

COc1cc(/C=C/C=C(\C#N)C(=O)NCCO)cc(OC)c1O [CR24, (E,E)-2-(β-Ethanolaminocarbonyl)-3-(3,5-dimethoxy-4-hydroxystyryl)acrylonitrile]
inhibition of bone marrow colony formation (normal bone marrow cells [4]; either 10 or 20 μM, 14 days (FIG. 13)): minimal inhibition
inhibition of cell growth ([5]; between 2.5 and 5 μM, colonies at 9 days (FIG. 10)): virtually complete inhibition
effectiveness against Ph+ ALL cells ([5]; concentrations as low as 0.5 μM, colonies at 9 days (FIG. 10)): effective
